Experimental data: patent US20240139229A1, “TREATMENT FOR AORTOPATHY” (UNIVERSITY OF KENTUCKY RESEARCH FOUNDATION, priority 2021, published 2024)

Test system: BAPN-induced aortic aneurysm and dissection
Assay: Disulfiram in BAPN-induced aortopathy mouse model, survival
Format: in vivo
Details: male C57BL/6J mice, 3 weeks old, BAPN 0.5% wt/vol in drinking water for 28 days, disulfiram 10 mg/mL in sesame oil, daily I.P. 100 μL per 20 g body weight, day -1 to 27, compared to vehicle
Method: For the evaluation, an animal model of aortic aneurysm as described above was used to evaluate effects of disulfiram on aortic aneurysm/aortopathy. The model comprised administration of BAPN, i.e., BAPN-induced aortopathy in a mouse model. Specifics of induction of hypercholesteremia and administration of BAPN were substantially as described supra. Male C57BL/6J mice at 3 weeks old were administered beta-aminopropionitrile (BAPN, 0.5% wt/vol) in drinking water for 28 days to induce aortic aneurysm and dissection.
The mice were separated randomly into two groups: control and treatment. For the control group, sesame oil was administered daily via intraperitoneal (I.P.) injection at 100 μL per 20 g body weight from day −1 to 27 (day −1 is the day before the first day of BAPN administration). Simultaneously, for treatment group, disulfiram at 10 mg/mL in sesame oil was administered daily via I.P. injection at 100 μL per 20 g body weight. Animal survival was monitored for 28 days during BAPN administration.

CCN(CC)C(=S)SSC(=S)N(CC)CC [disulfiram, tetraethyldisulfanedicarbothioamide] was tested, and the Animal survival was “statistically significant increases in days of survival” and the Animal survival (listed as Disulfiram) was “protects against death from aortopathy”.
